Data: US20210352905A1, “COMPOSITIONS AND METHODS TO DISINFECT, TREAT AND PREVENT MICROBIAL INFECTIONS” (WIAB WATER INNOVATION AB, priority 2020, published 2021)

What was measured:
avian influenza virus = conditions: similar formulations, in vitro; cited from earlier work
[1] = cited from earlier work
human rhinovirus (HRV) = conditions: low concentration hypochlorous acid nasal irrigation solution, in vitro, nasal epithelial cells; cited from earlier work
pre-formed biofilm = conditions: Halstead et al, PLOS ONE (2015); cited from earlier work
S. aureus biofilms = conditions: 1% acetic acid alone, FIG. 2

| SMILES | effects against avian influenza virus (avian influenza virus) | pKa [1] | virus-killing effect (human rhinovirus (HRV)) | concentrations of acetic acid that eradicated a pre-formed biofilm (pre-formed biofilm) | effect on the biofilm (S. aureus biofilms) |
| --- | --- | --- | --- | --- | --- |
| OCl [hypochlorous acid] | good effects | about 7 | significant virus-killing effect | – | – |
| CC(=O)O [acetic acid] | – | – | – | 0.10% to 2.5 | only minor effect |
